Assay results reported in patent US20190231757A1, “COMBINATION OF SPLEEN TYROSINE KINASE INHIBITORS AND OTHER THERAPEUTIC AGENTS” (Takeda Pharmaceutical Company Limited, priority 2016, published 2019).

Key:
Type in all cases: in vivo, mouse
[1] = Body weight and tolerability, OCI-LY10 ABT-199 study (Example 11)
Experimental: (§1) Experimental design: Female CB17 SCID mice (Charles River Laboratories, about 21 g at treatment start) were inoculated subcutaneously in the flank (cell suspension) with 4.0×10^6 OCI-Ly10 cells. Tumor growth was monitored with vernier calipers. Tumor volume was calculated using the formula V=W^2×L/2, where V=volume, W=width and L=length of the tumor. When the mean tumor volume reached approximately 175 mm^3, the animals were randomized into treatment groups (n=5/group). […] Tumor growth and body weight were measured twice per week. Tumor growth inhibition and body weight change were calculated on Day 21 of treatment.

[2] = test system: TMD8 DLBCL xenografts; experiment: Antitumor activity in CB17 SCID mice bearing TMD8 DLBCL xenografts, ABT-199 or gemcitabine combination (Example 9); conditions: Day 14, alone or combined with Compound A; for TGI (%): Compound A 60 mg/kg PO QD, ABT-199 25 mg/kg PO QD, gemcitabine 5 mg/kg IP Q3D x4; for Mean Tumor Volume (mm^3) ± SEM / T/C: Compound A 60 mg/kg, ABT-199 25 mg/kg, gemcitabine 5 mg/kg
Experimental: Tumor growth inhibition was calculated on Day 14 of the study. The last measurement was taken on Day 29 of the study.
(§2) Experimental design: Female CB17 SCID mice (Taconic Biosciences; weight at treatment start was about 19 g) were inoculated subcutaneously in the flank (cell suspension) with 5.0×10^6 TMD8 cells. Tumor growth was monitored with vernier calipers. Tumor volume was calculated using the formula V=W^2×L/2, where V=volume, W=width and L=length of the tumor. When the mean tumor volume reached approximately 245 mm^3, the animals were randomized into 6 treatment groups (n=8/group). […] Tumor growth and body weight were measured twice per week. Tumor growth inhibition and body weight change were calculated on Day 14 of treatment.
(§3) Statistical analysis: The differences in the tumor growth trends over time between pairs of treatment groups were assessed using linear mixed effects regression models. These models account for the fact that each animal was measured at multiple time points. A separate model was fit for each comparison, and the areas under the curve (AUC) for each treatment group were calculated using the predicted values from the model. The percent decrease in AUC (dAUC) relative to the reference group was then calculated. […] Further details regarding pairwise comparisons are provided in the Example 2.
(§4) Drug combinations were assessed for synergy using observed AUC values. The change in AUC relative to the control was calculated for both single agent treatment groups as well as the combination group. The interaction between the two compounds was then assessed by comparing the change in AUC observed in the combination group to the sum of the changes observed in both single agents. The results can be divided into four categories: synergistic, additive, sub-additive, and antagonistic. Further details regarding combination analyses are provided in the Example 2.
(§5) Once a final analysis was selected, the tumor measurements observed on a date pre-specified by the researcher (typically the last day of treatment) were analyzed to assess tumor growth inhibition. For this analysis, a T/C ratio was calculated for each animal by dividing the tumor measurement for the given animal by the mean tumor measurement across all control animals. The T/C ratios across a treatment group were compared to the T/C ratios of the control group using a two-tailed Welch's t-test.

[3] = Body weight and tolerability, TMD8 ABT-199/gemcitabine study (Example 9); conditions: alone or combined with Compound A; for % BW Change (Day Maximum): Compound A 60 mg/kg PO QD 14 d, ABT-199 25 mg/kg PO QD 14 d, gemcitabine 5 mg/kg IP Q3D x4; for Number of animals removed: Compound A 60 mg/kg, ABT-199 25 mg/kg, gemcitabine 5 mg/kg
Experimental: as §2

[4] = test system: OCI-LY 10 xenografts; experiment: Antitumor activity in CB17 SCID mice bearing OCI-LY10 xenografts, ABT-199 combination (Example 11); conditions: Day 21
Experimental: Tumor growth inhibition was calculated on Day 21 of the study. The last measurement was taken on Day 46 of the study.
as §1, §3, §4, §5

[5] = Body weight and tolerability, TMD8 gemcitabine study (Example 8); conditions: alone or combined
Experimental: as §2, with “was” for “was about”, “215” for “245”, “into” for “into 6”

[6] = test system: OCI-LY10 xenografts; experiment: Antitumor activity in CB17 SCID mice bearing OCI-LY10 xenografts, gemcitabine combination (Example 7); conditions: Day 21
Experimental: Tumor growth inhibition was calculated on Day 21 of the study. The last measurement was taken on Day 42 of the study.
as §2, with “20” for “about 19”, “4.0×10^6 OCI-Ly10” for “5.0×10^6 TMD8”, “cells.” for “cells. Tumor growth was monitored with vernier calipers.”, “199” for “245”, “21” for “14”
as §3, §4, §5

[7] = Body weight and tolerability, OCI-LY10 gemcitabine study (Example 7)
Experimental: as §2, with “20” for “about 19”, “4.0×10^6 OCI-Ly10” for “5.0×10^6 TMD8”, “cells.” for “cells. Tumor growth was monitored with vernier calipers.”, “199” for “245”, “21” for “14”

[8] = test system: TMD8 DLBCL xenografts; experiment: Antitumor activity in CB17 SCID mice bearing TMD8 DLBCL xenografts, gemcitabine combination (Example 8); conditions: Day 14, alone or combined
Experimental: Tumor growth inhibition was calculated on Day 14 of the study. The last measurement was taken on Day 40 of the study.
as §2, with “was” for “was about”, “215” for “245”, “into” for “into 6”
as §3
as §4, with “analysis” for “analyses”
as §5

[9] = test system: OCI-Ly10 human DLBCL xenografts; experiment: Antitumor activity in SCID mice bearing OCI-Ly10 human DLBCL xenografts, ibrutinib or bendamustine combination (Example 5); conditions: Day 21, Compound A 60 mg/kg PO QD, ibrutinib 6 mg/kg PO QD, bendamustine 1 mg/kg IV BIW (6 doses), alone or combined with Compound A
[10] = Body weight and tolerability, WSU-Luc ibrutinib study (Example 12); conditions: Compound A 60 mg/kg; ibrutinib 20 mg/kg; alone or combined
Experimental: (§6) Tumor growth was monitored with vernier calipers. Tumor volume was calculated using the formula V=W^2×L/2, where V=volume, W=width and L=length of the tumor. When the mean tumor volume reached approximately 190 mm^3, the animals were randomized into treatment groups (n=8/group). […] Tumor growth and body weight were measured twice per week. Tumor growth inhibition and body weight change were calculated on Day 20 of treatment.

[11] = test system: WSU-Luc human lymphoma xenografts; experiment: Antitumor activity in SCID mice bearing WSU-Luc human lymphoma xenografts, ibrutinib combination (Example 12); conditions: Day 20, alone or combined
Experimental: The study ended on Day 20 of dosing.
as §6
Statistical analysis: The differences in the tumor growth trends over time between pairs of treatment groups were assessed using linear mixed effects regression models. These models account for the fact that each animal was measured at multiple time points. A separate model was fit for each comparison, and the areas under the curve (AUC) for each treatment group were calculated using the predicted values from the model. The percent decrease in AUC (dAUC) relative to the reference group was then calculated.
The change in AUC relative to the control was calculated for both single agent treatment groups as well as the combination group. […] The results can be divided into four categories: synergistic, additive, sub-additive, and antagonistic.
For this analysis, a T/C ratio was calculated for each animal by dividing the tumor measurement for the given animal by the mean tumor measurement across all control animals. The T/C ratios across a treatment group were compared to the T/C ratios of the control group using a two-tailed Welch's t-test.

[12] = test system: Ly19 human lymphoma xenografts; experiment: Antitumor activity in SCID mice bearing Ly19 xenografts, rituximab combination (Example 14); conditions: alone or combined
[13] = test system: Ly10 human lymphoma xenografts; experiment: Antitumor activity in SCID mice bearing Ly10 xenografts, rituximab combination (Example 13); conditions: alone or combined
[14] = test system: OCI-Ly10 human lymphoma xenografts; experiment: Antitumor activity in SCID mice bearing OCI-Ly10 human lymphoma xenografts, bendamustine and rituximab (Example 6); conditions: Day 21; Compound A 30 mg/kg PO QD x21; bendamustine 1 mg/kg IV BIW; rituximab 1 mg/kg IV QW x3; alone or combined
[15] = ABT-199 25 mg/kg, alone or with Compound A 60 mg/kg
[16] = Compound A 60 mg/kg, ABT-199 12.5 mg/kg, alone or combined
[17] = Compound A 60 mg/kg, gemcitabine 5 mg/kg
[18] = Compound A 60 mg/kg PO QD, gemcitabine 2.5 mg/kg IP Q3D, alone or combined
[19] = Compound A 60 mg/kg, gemcitabine 2.5 mg/kg, alone or combined
[20] = gemcitabine 5 mg/kg IP Q3D, alone or with Compound A 60 mg/kg PO QD
[21] = gemcitabine 5 mg/kg, alone or with Compound A 60 mg/kg
[22] = Compound A 60 mg/kg PO QD, gemcitabine 5 mg/kg IP Q3D x4
[23] = Compound A 60 mg/kg, ibrutinib 20 mg/kg
[24] = Day 14, Compound A 60 mg/kg PO QD x14, rituximab 10 mg/kg IV QW x2
[25] = Day 21, Compound A 60 mg/kg PO QD x21, rituximab 1 mg/kg IV QW x3

Molecule: CC1(C)CCC(CN2CCN(c3ccc(C(=O)NS(=O)(=O)c4ccc(NCC5CCOCC5)c([N+](=O)[O-])c4)c(Oc4cnc5[nH]ccc5c4)c3)CC2)=C(c2ccc(Cl)cc2)C1 [ABT-199, venetoclax]
- % BW Change (Day Maximum) ([1]; ABT-199 25 mg/kg PO QD 21 d, alone or with Compound A 60 mg/kg PO QD): −1.5 (14) %
- Number of animals removed [1, 15]: 1
- % BW Change (Day Maximum) ([1]; Compound A 60 mg/kg PO QD 21 d, ABT-199 12.5 mg/kg PO QD 21 d, alone or combined): 4.6 (21) %
- Number of animals removed [1, 16]: 0
- TGI (%) [2]: 29.1%
- Mean Tumor Volume (mm^3) ± SEM [2]: 1,048.9 ± 136.1 mm^3
- T/C [2]: 0.71
- % BW Change (Day Maximum) [3]: −0.4 (11) %
- Number of animals removed [3]: 0
- TGI (%) ([4]; ABT-199 25 mg/kg PO QD, alone or with Compound A 60 mg/kg PO QD): 9.2%
- Mean Tumor Volume (mm^3) ± SEM [4, 15]: 950.3 ± 182.1 mm^3
- T/C [4, 15]: 0.91
- TGI (%) ([4]; Compound A 60 mg/kg PO QD, ABT-199 12.5 mg/kg PO QD, alone or combined): −0.4%
- Mean Tumor Volume (mm^3) ± SEM [4, 16]: 1,050.6 ± 221.4 mm^3
- T/C [4, 16]: 1.00

Molecule: Nc1ccn([C@@H]2O[C@H](CO)[C@@H](O)C2(F)F)c(=O)n1 [gemcitabine]
- TGI (%) [2]: 70.3%
- Mean Tumor Volume (mm^3) ± SEM [2]: 440.2 ± 70.9 mm^3
- T/C [2]: 0.30
- % BW Change (Day Maximum) [3]: −0.2 (11) %
- Number of animals removed [3]: 0
- % BW Change (Day Maximum) ([5]; Compound A 60 mg/kg PO QD 14 d, gemcitabine 5 mg/kg IP Q3D x4): −0.1 (4) %
- Number of animals removed [5, 17]: 0
- Mean Tumor Volume (mm^3) ± SEM [6, 18]: 561.7 ± 52.5 mm^3
- TGI (%) [6, 18]: 52.6%
- T/C [6, 19]: 0.47
- Mean Tumor Volume (mm^3) ± SEM [6, 20]: 331.3 ± 57.6 mm^3
- TGI (%) [6, 20]: 72.1%
- T/C [6, 21]: 0.28
- % BW Change (Day Maximum) ([7]; Compound A 60 mg/kg PO QD 21 d, gemcitabine 2.5 mg/kg IP Q3D (4 doses), alone or combined): 7.5 (21) %
- Number of animals removed [7, 19]: 0
- % BW Change (Day Maximum) ([7]; gemcitabine 5 mg/kg IP Q3D (4 doses), alone or with Compound A 60 mg/kg PO QD): −1.4 (3) %
- Number of animals removed [7, 21]: 0
- Mean Tumor Volume (mm^3) ± SEM [8, 22]: 294.7 ± 36.5 mm^3
- TGI (%) [8, 22]: 67.1%
- T/C [8, 17]: 0.33

Molecule: C=CC(=O)N1CCC[C@@H](n2nc(-c3ccc(Oc4ccccc4)cc3)c3c(N)ncnc32)C1 [ibrutinib]
- TGI [9]: 18%
- TGI ([9]; listed as Ibrutinib): 18.0%
- Number of animals removed [10]: 0
- TGI (%) ([11]; Compound A 60 mg/kg PO QD, ibrutinib 20 mg/kg PO QD): 0.5%
- Mean Tumor Volume (mm^3) ± SEM [11, 23]: 1,085.2 ± 109.9 mm^3
- T/C [11, 23]: 1.00

Molecule: rituximab
- Mean Tumor Volume (mm^3) ± SEM at Day 14 [12, 24]: 516.8 ± 113.3 mm^3
- TGI (%) [12, 24]: 79.5%
- dAUC ([12]; vs vehicle, Compound A 60 mg/kg, rituximab 10 mg/kg): 61.8
- Mean Tumor Volume (mm^3) ± SEM at Day 21 [13, 25]: 301.8 ± 30.8 mm^3
- TGI (%) [13, 25]: 66.7%
- dAUC ([13]; vs vehicle, Compound A 60 mg/kg, rituximab 1 mg/kg): 77.6
- TGI [14]: 33.4%
